Experimental data taken from the NIST ThermoML archive (doi:10.1021/je049824c).
Numbers after ± are expanded uncertainties.

Key:
[1] = Liquid, Closed cell (Static) method
[2] = excess molar enthalpy (molar enthalpy of mixing); xn = mol fraction of the nth substance listed; conditions: 14100 kPa, Liquid, Flow calorimetry

With COC(=O)C(C)O (stereo not drawn) [methyl 2-hydroxypropanoate] the “vapor or sublimation pressure” value ([1]; 283.15 K) was 0.17 ± 0.04 kPa, the “vapor or sublimation pressure” value ([1]; 293.15 K) was 0.43 ± 0.04 kPa and the “vapor or sublimation pressure” value ([1]; 303.15 K) was 0.87 ± 0.04 kPa.
COC(=O)C(C)O (stereo not drawn) [methyl 2-hydroxypropanoate] + O showed an excess molar enthalpy ([2]; 303.15 K, x2 = 0.0632) of 0.004 ± 0.000215 kcal/mol, an excess molar enthalpy ([2]; 303.15 K, x2 = 0.1202) of 0.00357 ± 0.000213 kcal/mol and an excess molar enthalpy ([2]; 303.15 K, x2 = 0.219) of -0.000437 ± 0.000189 kcal/mol. For the same molecule, the excess molar enthalpy ([2]; 303.15 K, x2 = 0.3016) was -0.00462 ± 0.000222 kcal/mol, the excess molar enthalpy ([2]; 303.15 K, x2 = 0.3718) was -0.00866 ± 0.000287 kcal/mol and the excess molar enthalpy ([2]; 303.15 K, x2 = 0.4321) was -0.0134 ± 0.000382 kcal/mol. The excess molar enthalpy ([2]; 303.15 K, x2 = 0.5083) was -0.0221 ± 0.00055 kcal/mol, the excess molar enthalpy ([2]; 303.15 K, x2 = 0.5711) was -0.0295 ± 0.000693 kcal/mol and the excess molar enthalpy ([2]; 303.15 K, x2 = 0.6397) was -0.0384 ± 0.000884 kcal/mol. The excess molar enthalpy ([2]; 303.15 K, x2 = 0.7195) was -0.0493 ± 0.00112 kcal/mol, the excess molar enthalpy ([2]; 303.15 K, x2 = 0.7803) was -0.0572 ± 0.00129 kcal/mol and the excess molar enthalpy ([2]; 303.15 K, x2 = 0.8419) was -0.0642 ± 0.00143 kcal/mol. For the same molecule, the excess molar enthalpy ([2]; 303.15 K, x2 = 0.8988) was -0.0647 ± 0.00143 kcal/mol, the excess molar enthalpy ([2]; 303.15 K, x2 = 0.9411) was -0.0552 ± 0.00124 kcal/mol and the excess molar enthalpy ([2]; 303.15 K, x2 = 0.9796) was -0.0288 ± 0.000693 kcal/mol. For the same molecule, the excess molar enthalpy ([2]; 333.15 K, x2 = 0.0632) was -0.00394 ± 0.000215 kcal/mol, the excess molar enthalpy ([2]; 333.15 K, x2 = 0.1202) was -0.00928 ± 0.000311 kcal/mol and the excess molar enthalpy ([2]; 333.15 K, x2 = 0.219) was -0.0211 ± 0.000526 kcal/mol. The excess molar enthalpy ([2]; 333.15 K, x2 = 0.3016) was -0.0288 ± 0.000693 kcal/mol, the excess molar enthalpy ([2]; 333.15 K, x2 = 0.3718) was -0.0345 ± 0.000813 kcal/mol and the excess molar enthalpy ([2]; 333.15 K, x2 = 0.4321) was -0.0398 ± 0.000908 kcal/mol. The excess molar enthalpy ([2]; 333.15 K, x2 = 0.5083) was -0.0479 ± 0.00108 kcal/mol, the excess molar enthalpy ([2]; 333.15 K, x2 = 0.5711) was -0.0552 ± 0.00124 kcal/mol and the excess molar enthalpy ([2]; 333.15 K, x2 = 0.6397) was -0.0643 ± 0.00143 kcal/mol. It also gave an excess molar enthalpy ([2]; 333.15 K, x2 = 0.7195) of -0.0756 ± 0.00167 kcal/mol, an excess molar enthalpy ([2]; 333.15 K, x2 = 0.7803) of -0.0839 ± 0.00184 kcal/mol and an excess molar enthalpy ([2]; 333.15 K, x2 = 0.8419) of -0.0901 ± 0.00198 kcal/mol. The excess molar enthalpy ([2]; 333.15 K, x2 = 0.8988) was -0.0891 ± 0.00196 kcal/mol, the excess molar enthalpy ([2]; 333.15 K, x2 = 0.9411) was -0.0767 ± 0.0017 kcal/mol and the excess molar enthalpy ([2]; 333.15 K, x2 = 0.9796) was -0.0394 ± 0.000908 kcal/mol.
